Read-outs that look alike come from different tables or passages of the source.
Tests used:
[1] = tested on: USA WA-01 strain of SARS CoV-2; test: Anti-coronavirus activity in Vero E6 cells, qPCR of spike RNA (Example 2); format: cell-based
Procedure: (§1) Ten thousand Vero E6 cells were seeded in 100 microliters of culture medium in 96 well plates. The following day serial two-fold dilutions of antiviral compounds or the DMSO-containing vehicle were added to each well. The USA WA-01 strain of SARS CoV-2 was added to each well at a multiplicity of infection of 0.1 thirty minutes later. Cells were incubated for 48 hours, washed twice in PBS and lysed with TRIzol. RNA was extracted using Directzol micro RNA columns. RNA was made into cDNA and assayed for the SARS CoV-2 spike protein and for a housekeeping gene (RPLPO) RNA by qPCR. Data represents the average of duplicate wells. Cellular cytotoxicity was also measured in VERO E6 cells. […] Cytotoxicity (CC50) was assessed using a commercially available MTT assay.

[2] = tested on: VERO E6 cells; test: Cellular cytotoxicity in Vero E6 cells, MTT assay (Example 2); format: cell-based
Procedure: as §1

[3] = tested on: SARS-CoV-2 isolate USA-WA1/2020; test: SARS-CoV-2 infection in Vero E6 cells, qRT-PCR of Spike RNA (Example 3); format: cell-based
[4] = tested on: VERO E6 cells; test: CellTiter-Glo luminescent cell viability assay, Vero E6 (Example 3); format: cell-based
Procedure: (§2) CellTiter-glo luminescent cell viability assay: Approximately 10^4 Vero E6 cells per well were seeded in opaque walled 96 well cell culture plates and incubated overnight. Compounds or controls were added at the indicated concentrations. […] Viability was calculated compared to untreated controls and CC50 values were calculated using Prism 8.
(§3) Determination of Cytotoxicity: The 50% cytotoxic concentrations (CC50) were determined with Cell Titer Glo (Cat. #G7570, Promega, Madison, WI) according to the manufacturer's instructions. The calculated CC50 values are shown in the foregoing table.
(§4) Relative viability was measured by CellTiter-Glo luminescent cell viability assay, as depicted at FIG. 2.

[5] = tested on: HCoV-229E; format: cell-based, human Coronavirus 229E
[6] = tested on: Huh7.5 cells; test: Cytotoxicity in Huh7.5 cells, nuclei count (Example 6); format: cell-based, human
[7] = tested on: SARS-CoV-2 isolate USA-WA1/2020; test: SARS-CoV-2 infection in Vero E6 cells, qRT-PCR (Example 7); format: cell-based; settings: for Selectivity: CC50/EC50, Vero E6 cells; for EC50 / EC90: Vero E6 cells, MOI 0.01, 48 hours
[8] = tested on: SARS-CoV-2 isolate USA-WA1/2020; test: SARS-CoV-2 infection in PSC-human lung cells, qRT-PCR (Example 7); format: cell-based
[9] = tested on: SARS-CoV-2 isolate USA-WA1/2020; test: SARS-CoV-2 infection in Calu-3 cells, qRT-PCR (Example 7); format: cell-based
[10] = tested on: SARS-CoV-2 isolate USA-WA1/2020; test: SARS-CoV-2 infection in Huh7.5 cells, qRT-PCR (Example 7); format: cell-based; settings: for Selectivity: CC50/EC50, Huh7.5 cells
[11] = tested on: SARS-CoV-2 isolate USA-WA1/2020; test: SARS-CoV-2 infection in Caco-2 cells, qRT-PCR (Example 7); format: cell-based
[12] = tested on: MRC-5 cells
[13] = tested on: Calu-3 cells; test: Cell viability assay CellTiter-Glo, Calu-3 cells (Example 7); settings: Calu-3 cells, CellTiter-Glo
[14] = tested on: Huh7.5 cells; test: Cell viability assay CellTiter-Glo, Huh7.5 cells (Example 7)
[15] = tested on: Caco-2 cells; test: Cell viability assay CellTiter-Glo, Caco-2 cells (Example 7); settings: Caco-2 cells, CellTiter-Glo
[16] = tested on: VERO E6 cells; test: Cell viability assay CellTiter-Glo, Vero E6 cells (Example 7)
[17] = tested on: PSC-human lung cells; test: Cell viability assay CellTiter-Glo, PSC-human lung cells (Example 7)
[18] = tested on: human PBMCs; test: Cytotoxicity (CC50) in human PBMCs; format: cell-based
[19] = 42 day pharmacokinetic study after a single IM administration in rats, formulations F3, F4, F7, F8; format: in vivo; settings: for time with plasma levels at a virally significant level: rats, IM, only the 100 mg/kg dose, formulation F3
Procedure: Comparison of Formulations F3, F4, F7 and F8 following a single IM administration in rats—Groups: Vehicle control, 10 mg/kg, 30 mg/kg and 100 mg/kg of formulations 3, 4, 7, 8.
Procedure: At time zero rats were injected intramuscularly with 100 microliters of vehicle and formulations as noted. […] Blood was obtained at 6, 24 and 48 hours, and at 7, 14, 28, 35 and 42 days and the plasma levels of ODE-Bn-TFV and ODE-TFV (the first metabolite, also an active anti-HIV compound) were determined by LC/MS/MS.
A 42 days pharmacokinetic study of formulations 3, 4, 7, and 8 of this example in rats was conducted. In the study, 100, 30, and 10 mg/kg of each formulation was administered by intramuscular (IM) injection to male Sprague Dawley rates (100 microliters). […] The rats were subjected to twice weekly clinical observations, and weights were collected.

[20] = tested on: HFF cells; test: Persistence of TFVpp in HFF cells after a 3 day exposure
Excerpt: HFF cells were exposed to 1 micromolar drug for 3 days. At days 0, 1, 2, 4, 7, 14, 21, and 28, cells were trypsinized, counted, and processed for LC/MS measurement of TFVpp. Data were expressed at ftg/cell. nm=not meaningful; ftg—gemtogram.

[21] = tested on: HIV-1; settings: for EC50: HIV infected human PBMCs
Procedure: Antiviral activities were determined in HIV infected human PBMCs.

[22] = tested on: HIV-1; settings: Beadle et al. Antiviral Res. 2019; cited from earlier work
[23] = Cellular cytotoxicity in Vero E6 cells, MTT assay (Example 2); format: cell-based; settings: African green monkey
Procedure: as §1

[24] = CellTiter-Glo luminescent cell viability assay, Vero E6 (Example 3); format: cell-based; settings: African green monkey; Vero E6 cells, Cell Titer Glo, 48.5 hours; read-out: CC50
Procedure: as §2, §3, §4

[25] = tested on: VERO E6 cells; test: Generation of remdesivir triphosphate in Vero E6 cells (LC/MS/MS); format: in vitro ADME; settings: 1 micromolar drug, up to 48 hours
Procedure: In this example, Vero E6 cells were plated in 6 well plates at about 3.4×10^5 cells per well in 2 mL of media (DMEM, 10% FBS).
Cells were then incubated at 37° C. for 24 hours. Media was then aspirated and replaced with 2 mL of control media (fresh Dulbecco's Modified Eagle's Medium (DMEM), 10% FBS) or 2 mL of media with drug at a concentration of 1 μM. Cell were incubated with the various drugs for 48 hours. The media was aspirated, the cells rinsed twice with phosphate-buffered saline (PBS), trypsinized for 5 minutes with 1 mL ATV, triturated and removed to a 15 mL centrifuge tube, rinsed with 1 mL PBS, which was also then removed to the 15 mL centrifuge tube, and the cells were triturated again. Cells were counted in a Reichert hemocytometer using two 10 μL samples, and the number of cells in each sample was determined.
Cells were centrifuged at 1200 rpm for 10 minutes, diluent aspirated and the pellet resuspended in 250 μL of methanol/distilled water (70/30) and analyzed by LC/MS/MS. The results, which are depicted at FIG. 3, were in picomoles/10^6 cells and were the average of two or three determinations.

[26] = after intravenous infusion, reported; cited from earlier work
[27] = in vitro; settings: human
Procedure: Cells were infected with 229E for 2 hours followed by treatment with the indicated dose of the indicated drug for 72 hours. The relative CPE was determined by measuring cell viability using an MTT assay. depicts the cytotoxicity in MRC-5 cells incubated in the presence of the indicated drug at the indicated concentration for 72 hours, after which cell viability was measured by the CellTiter-Glo assay. Data points indicate the averages from 3 independent experiments performed in duplicate. Error bars represent the standard error mean (SEM).

[28] = reported, Siegel et al. 2017; cited from earlier work
[29] = Cell viability assay CellTiter-Glo, Calu-3 cells (Example 7); settings: human
[30] = Cell viability assay CellTiter-Glo, Caco-2 cells (Example 7); settings: human
[31] = design: species or system beagle dogs; settings: dog, in vivo
Procedure: Canine Pharmacokinetics of ODE-Bn-TFV in Formulation F3—A 30 day study in beagle dogs was done with 30 mg/kg IM doses of ODE-Bn-TFV in formulation F3.

[32] = rat, in vivo
Procedure: Maximal volume IM injections of 100 microliters were given at day 0, 30 and 60 to groups of 3 rats. There were 3 groups of control animals who received monthly injections of F3 vehicle. […] Weights were assessed over the 3-month period. […] Because a constant (maximal) IM volume of 100 microliters was given, the initial dose was 90 mg/kg and the two following injections at days 30 and 60 were lower, 62 mg/kg, due to weight increases of the rats.

[33] = Vero E6 cells, MOI 0.1, 48 hours
[34] = Vero E6 cells, MOI 0.01, 48 hours, mean±SD
[35] = Huh7.5 cells, MOI 0.01, 48 hours, qRT-PCR (Example 7)
[36] = Caco-2 cells, MOI 0.01, 48 hours
[37] = Severe acute respiratory syndrome coronavirus 2, Vero C1008

For `CCCCCCCCCCCCCCCCCCOCCOP(=O)(O)OC[C@H]1O[C@@](C#N)(c2ccc3c(N)ncnn23)[C@H](O)[C@@H]1O` [Compound 4c, 2-(Octadecyloxy)ethyl-phospho-RVn], the “Selectivity Index” value ([1]; CC50/EC50, Vero E6) was over 143, the EC50 [1, 33] was 350 nM and the EC90 [1, 33] was 530 nM. It also gave a CC50 [2] of over 50000 nM, a Selectivity ([3]; CC50/EC50, Vero E6) of over 212 and an EC50 [3, 34] of 470 ± 180 nM. For the same compound, the EC90 [3, 34] was 1100 ± 800 nM, the “times more active than RDV” value ([3]; based on the EC50 values, Vero E6) was 9.8 and the CC50 [4] was over 100000 nM. For the same compound, the EC50 [5] was 410 ± 12 nM, the EC90 [5] was 840 ± 95 nM and the CC50 [6] was over 20000 nM. For the same compound, the Selectivity [7] was over 333, the EC50 [7] was 300 nM and the EC90 [7] was 330 nM. For the same compound, the Selectivity ([8]; CC50/EC50, PSC-human lung cells) was over 454, the EC90 ([8]; PSC-human lung cells, MOI 0.01, 48 hours) was 700 nM and the EC50 ([8]; PSC-human lung cells, MOI 0.01, 48 hours, listed as ODE-P-RVn) was 220 nM. For the same compound, the Selectivity ([9]; CC50/EC50, Calu-3 cells) was 290, the EC90 ([9]; Calu-3 cells, MOI 0.01, 48 hours) was 640 nM and the EC50 ([9]; Calu-3 cells, MOI 0.01, 48 hours, listed as ODE-P-RVn) was 340 nM. For the same compound, the Selectivity [10] was over 526, the EC50 [10, 35] was 190 nM and the EC90 [10, 35] was 370 nM. For the same compound, the EC50 ([10]; Huh7.5 cells, MOI 0.01, 48 hours, qRT-PCR (Example 7), listed as ODE-P-RVn) was 190 nM, the Selectivity ([11]; CC50/EC50, Caco-2 cells) was over 129 and the EC50 [11, 36] was 770 nM. The EC90 [11, 36] was 1250 nM, the CC50 [12] was over 50000 nM and the CC50 [13] was 98700 nM. The CC50 [14] was over 100000 nM, the CC50 [15] was over 100000 nM and the CC50 [16] was over 100000 nM. For the same compound, the CC50 [17] was over 100000 nM.
For `CCCCCCCCCCCCCCCCCCOCCOP(=O)(O)CO[C@H](C)Cn1cnc2c(N)ncnc21` [ODE-TFV], the CC50 [18] was 1280 nM, the “time with plasma levels at a virally significant level” value [19] was 28 days and the “T1/2 of TFVpp” value [20] was 1.2. For the same compound, the “Tmax of TFVpp” value [20] was 0 h, the EC50 [21] was 1.1 nM and the ED90 ([21]; reference line in FIG. 12B) was 6.3 nm/mL. For the same compound, the EC90 [22] was 10 nM.
With `CCC(CC)COC(=O)[C@H](C)N[P@](=O)(OC[C@H]1O[C@@](C#N)(c2ccc3c(N)ncnn23)[C@H](O)[C@@H]1O)Oc1ccccc1` [RDV, Remdesivir, reference compound] the CC50 [23] was over 50000 nM, the CC50 at 48.5 h [24] was over 100000 nM and the “levels of remdesivir triphosphate (RVn-TP)” value [25] was “below the level of quantification”. It also gave a Selectivity [7] of 89.4, an EC50 [7, 37] of 1130 nM and an EC90 [7, 37] of 7050 nM. The Selectivity [10] was 253, the “time persisting at virologically significant levels in plasma” value [26] was “less than 2 hours” and the CC50 [27] was over 50000 nM. The “T1/2 ex vivo in human plasma” value [28] was 1.15 h, the CC50 at 48.5 h [29] was over 100000 nM and the CC50 at 48.5 h [30] was over 100000 nM.
For “Octadecyloxyethyl benzyl tenofovir [ODE-Bn-TFV]”, the CC50 [18] was 8720 nM, the initial plasma values ([19]; rat, in vivo) was about 100 ng/mL and the “time with plasma levels at a virally significant level” value [19] was 28 days. For the same compound, the adverse effects [31] was “no adverse effects except for some transient swelling at the injection sites”, the “T1/2 of TFVpp” value [20] was 3.7 and the “Tmax of TFVpp” value [20] was 48 h. The EC50 [21] was 1.7 nM, the ED90 ([21]; reference line in FIG. 12A) was 10.9 ng/mL and the “Selectivity Index” value ([21]; variation of the diester substituent of ODE-TFV) was 5130. The “clinical observations, metabolic panels, CBCs” value [32] was “no clinical observations of significance”.
